In ChEMBL document CHEMBL1142430, “Acremine G, dimeric metabolite from cultures of Acremonium byssoides A20” (J Nat Prod, 2008):

Tests used:
Plasmopara viticola = test: Inhibition of germination of sporangia of Plasmopara viticola at 1 mM; format: functional
NCI-H460 = test: Cytotoxicity against human H460 cells; format: functional, cell-based

Row | Structure (SMILES) | inhibition at 1000 µM (Plasmopara viticola) [%] | IC50 (NCI-H460) [µM]
1 | CC1=CC2c3cc(O)c(C)cc3OC3(C1)C(=O)C(C)=CC(=O)C23/C=C/C(C)(C)O (racemic) | 72.5 | 48
2 | CC(C)(O)/C=C/C1=CC(=O)[C@](C)(O)C[C@@H]1O [ACREMINE A] | 58.2 | > 100
3 | CC(C)(O)/C=C/C1=CC(=O)[C@](C)(O)CC1=O [ACREMINE B] | 57.7 | 36
